In article PMC10552397 (Cell Communication and Signaling : CCS, 2023):

What was measured:
EFEMP1 = biological target: T1, EFEMP1 (Homo sapiens, UniProt Q12805); test: TPP-TR/RTSA, EFEMP1; format: binding
T1 construct: endogenous in cells; host or cells: HeLa wt cells
T1 sequence (Q12805 18-493): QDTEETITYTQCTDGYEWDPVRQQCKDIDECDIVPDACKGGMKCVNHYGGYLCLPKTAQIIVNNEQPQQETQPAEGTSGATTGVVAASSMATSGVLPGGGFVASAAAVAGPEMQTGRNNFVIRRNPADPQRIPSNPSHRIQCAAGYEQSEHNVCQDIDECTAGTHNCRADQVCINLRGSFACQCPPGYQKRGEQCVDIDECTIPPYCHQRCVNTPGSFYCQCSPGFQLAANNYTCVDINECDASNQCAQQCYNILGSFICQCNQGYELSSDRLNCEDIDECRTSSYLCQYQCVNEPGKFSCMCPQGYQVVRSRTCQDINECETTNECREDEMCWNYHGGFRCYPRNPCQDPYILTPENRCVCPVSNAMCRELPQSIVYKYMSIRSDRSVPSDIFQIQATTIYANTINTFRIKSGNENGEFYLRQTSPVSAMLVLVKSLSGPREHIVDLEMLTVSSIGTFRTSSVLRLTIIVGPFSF
Procedure: TPP was performed essentially as described, but with major modifications to the TMT labeling sets and statistical data analysis for TPP-TR.
Adherent cells were washed in the dish once with DPBS and harvested by Trypsin–EDTA (0.25%, Thermo Fisher Scientific, Waltham, MA, USA, #25,200,056) treatment. […]
After temperature treatment, samples were supplemented with lysis buffer (final concentrations: 0.36 U/µL benzonase, 1.5 mM MgCl2, 1 mM Na3VO4, 10 mM NaF, 2.5 mM Na4P2O7, 0.8% w/v NP-40) for 1 h on ice. […] The total protein concentration of the resulting cell extracts containing the fraction of soluble, non-denatured proteins was determined (Pierce 660 nm Protein Assay, BSA as standard). […] The two (37 °C or 50 °C) x ten (concentrations) x three (replicates) = 60 TPP-CCR samples and two (treatment and control) x ten (temperatures) x three (replicates) = 60 TPP-TR samples were analyzed by LC–MS/MS. GRASP55 was additionally quantified from the TPP-TR samples by immunoblotting as described in the respective section.
For TPP-CCR, SP3 was performed as described with slight modifications to the original protocol using on average 5 µg total protein per sample and resulting in theoretically 5 µg peptides in 22 µL 50 mM triethylammonium bicarbonate per sample. […] This volume was calculated such that the lowest two temperature samples (36.5 °C and 41.2 °C) contained 10 µg total protein on average. […]

HeLa wt cells = test: BFA washout assay (Golgi reassembly, TGN46 and B4GALT1 staining); format: cell-based; settings: 120 min washout
Procedure: For BFA washout assays, HeLa wt cells were seeded on glass coverslips in 24-well plates. […] After 24 h, the treatment medium was removed, cells were washed once with DPBS and then treated with 5 µg/mL BFA or 0.1% DMSO as a control for 2 h. Cells were then washed with DPBS four times and incubated with fresh culture medium for 0/15/30/45/60/120 min. After the respective BFA washout time, cells were fixed in ice-cold methanol for 15 min on ice, washed three times with DPBS and blocked in 3% BSA (Roth, Karlsruhe, Germany, #8076) overnight. Samples were incubated with primary antibodies diluted in 3% BSA for 2 h and then washed three times with DPBS, incubated with the appropriate secondary antibodies diluted in 3% BSA for 30 min and washed three times with DPBS. Afterwards, cells were embedded in ProLong Glass Antifade Mountant (Thermo Fisher Scientific, Waltham, MA, USA, #P36980) containing 1 µg/mL DAPI (Roth, Karlsruhe, Germany, #6335.1). Images were recorded with an Axio Observer 7 fluorescence microscope (Carl Zeiss Microscopy, Oberkochen, Germany) using a 40x/1,4 Oil DIC M27 Plan-Apochromat objective (Carl Zeiss Microscopy, Oberkochen, Germany) and an ApoTome 2 (Carl Zeiss Microscopy, Oberkochen, Germany).

## CCCCCC1=C/C(=C/c2[nH]c(-c3ccc[nH]3)cc2OC)N=C1C [Prodigiosin, prodigiosin]
EFEMP1; 100 nM vs DMSO, 6 h, HeLa wt, read-out: Mean_dTm
  ΔTm at 0.1 µM: 1.55 °C
EFEMP1; RTSA distance score
  distancescore: 13.326
HeLa wt cells; 10 nM pre-treatment 24 h
  Golgi reassembly during BFA washout: fully reformed Golgi complex
HeLa wt cells; 100 nM pre-treatment 24 h
  Golgi reassembly during BFA washout: severely disturbed Golgi reassembly
